Measurements: PubChem BioAssay AID463199 (Broad Institute, 2010)
Active and inactive are the calls of the source.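 How the source made its calls: active means AC50, the dose giving half-maximal effect, exceeds a fixed cutoff for a compound that rescues yeast growth under heat; inactive means the rest, inconclusive results apart.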

System: S. cerevisiae Burl-1 ts mutant growth, BacTiter-Glo, 38.5C 24 h
Experiment: restored growth of temperature-sensitive Burl-1 yeast – whole organism, S. cerevisiae, Burl-1 ts mutant, luminescence, counter-screen for SUMOylation pathway inhibitor project, dose response (AID 463199)

Structure (SMILES)	AC50
Cc1ccccc1-c1nnnn1C1CCS(=O)(=O)C1 (stereo unspecified)	> 42 µM (inactive)
Cn1c(-c2sc3cc(C(F)(F)F)cnc3c2-c2cccs2)n[nH]c1=S	> 42 µM (inactive)
CC1=C/C(=N\OS(=O)(=O)c2ccccc2)C(C(C)C)=CC1=O	> 42 µM (inactive)
O=C(Nc1ccccc1N1CCN(c2ccccc2)CC1)c1cccc(F)c1	> 42 µM (inactive)
Cc1ccc(S(=O)(=O)N[C@@H](Cc2ccccc2)C(=O)CCl)cc1	> 42 µM (inactive)
CCOC(=O)C1(CCOc2ccccc2)CCN(Cc2cccc(OC)c2O)CC1	> 42 µM (inactive)
Cc1c(O)ccc(C(=O)CN2C(=O)c3ccccc3C2=O)c1O	> 42 µM (inactive)
O=C(Nc1ccc(Cl)cc1Cl)c1cccc(N2C(=O)C=CC2=O)c1	> 42 µM (inactive)
COc1ccc(-c2[nH]nc3c2C(c2ccncc2)C(C#N)=C(N)O3)cc1 (stereo unspecified)	> 42 µM (inactive)
O=C(Nc1ccc(Cl)cc1)C1=Cc2ccccc2OC1	> 42 µM (inactive)
CCOP(=O)(OCC)C(NC(=O)c1cccc(C)c1)C(Cl)(Cl)Cl (stereo unspecified)	> 42 µM (inactive)
COCC(C)n1c(C)cc(C(=O)CSc2ccc(NC(C)=O)cc2)c1C (stereo unspecified)	> 42 µM (inactive)
COc1ccc(S(=O)(=O)NCC(=O)N(CC(=O)NCC2CCCO2)c2ccccc2C)cc1 (stereo unspecified)	> 42 µM (inactive)
Cc1ccc(C(=O)NNc2ncnc3c2cnn3C)cc1	> 42 µM (inactive)
O=S(=O)(c1cccc(-c2nnco2)c1)N1CCCC1	> 42 µM (inactive)
CCCn1c(SC(C)C(=O)NCC2CCCO2)nc2sc(CC)cc2c1=O (stereo unspecified)	> 42 µM (inactive)
COc1ccc(NC(=S)NC(=O)C2CCC2)cc1	> 42 µM (inactive)
Cc1cc(C)n(CCCNC(=O)CN(C)S(=O)(=O)c2ccc(Cl)cc2)n1	> 42 µM (inactive)
CCC1(CC)NC(=O)N(CC(=O)OCC(=O)NC(=O)c2ccccc2)C1=O	> 42 µM (inactive)
O=C(C[n+]1ccc(C(=O)N/N=C/c2ccc(Cl)cc2Cl)cc1)c1ccccc1	> 42 µM (inactive)
Cn1c(=O)c2c(nc(N/N=C/c3ccc(OC(=O)c4ccco4)cc3)n2Cc2ccccc2Cl)n(C)c1=O	> 42 µM (inactive)
O=C(CCCCCn1c(=O)[nH]c2ccsc2c1=O)NCc1ccc(F)cc1	> 42 µM (inactive)
Cc1nc(NCCN2CCOCC2)c2nnn(Cc3c(F)cccc3Cl)c2n1	> 42 µM (inactive)

Structure (SMILES)	AC50
CCc1cccc(C)c1NC(=O)CSc1nnc(-c2cc3cc(Br)ccc3o2)n1CC	> 42 µM (inactive)
CN(C(=O)COC(=O)c1cc(-c2ccc(Cl)s2)nc2ccccc12)C1CCS(=O)(=O)C1 (stereo unspecified)	> 42 µM (inactive)
CCOc1ccc(C(=O)NCC2OCCc3ccccc32)cc1 (stereo unspecified)	> 42 µM (inactive)
O=[N+]([O-])c1cncc([N+](=O)[O-])c1Nc1ccccc1Cl	> 42 µM (inactive)
COc1cccc(CN2CCN(C(=O)c3cccc4ccccc34)CC2)c1OC	> 42 µM (inactive)
Cc1ccc(C(=O)Nc2nc(-c3ccc(F)cc3)cs2)o1	> 42 µM (inactive)
CC(C)(C)C(=O)NC1(C(F)(F)F)NC(=O)N(c2ccccc2F)C1=O (stereo unspecified)	> 42 µM (inactive)
COc1ccc2c(c1)[C@H]1[C@H](CO2)[C@H](c2ccccc2)[C@]2(C)C(=O)Nc3cc(F)ccc3C(=O)N12	> 42 µM (inactive)
COC(=O)c1ccccc1NC(=O)c1cnn2c(C)cc(C)nc12	> 42 µM (inactive)
COc1ccc(NC(=O)C2CCCN2S(=O)(=O)c2cccc3cccnc23)cc1OC (stereo unspecified)	> 42 µM (inactive)
COCCCN1C(=O)c2ccc(C(=O)Nc3ccc(OC)cc3OC)cc2C1=O	> 42 µM (inactive)
CCOc1ccccc1C(=O)NCc1ccc2c(c1)OCO2	> 42 µM (inactive)
O=C1CCCN1CCC1CCN(C2CC(=O)N(c3ccc(Cl)cc3)C2=O)CC1 (stereo unspecified)	> 42 µM (inactive)
COc1cc2cc(C)c3nnc(SCC(=O)Nc4cc(C)on4)n3c2cc1OC	> 42 µM (inactive)
CCN(CC)C(=O)CSc1nnc(CNc2ccc(F)cc2)n1Cc1ccco1	> 42 µM (inactive)
Cc1cc(-c2ccc(C(C)C)c(S(=O)(=O)N3CC(=O)Nc4ccccc43)c2)on1	> 42 µM (inactive)
Cc1ccc(C(C(=O)Nc2ccc3c(c2)OCO3)N(C)C(=O)Cc2c[nH]c3ccccc23)cc1 (stereo unspecified)	> 42 µM (inactive)
CC(=O)c1ccc(Oc2cc(C)nc(N3CCOCC3)n2)cc1	> 42 µM (inactive)
COC(=O)c1cccc(NC(=O)c2ccc[n+]([O-])c2)c1	> 42 µM (inactive)
CC1CC(C)(C)N(C(=O)CN2C(=O)CCC2=O)c2ccccc21 (stereo unspecified)	> 42 µM (inactive)
CCOc1ccc(C(C(=O)NC2CCCC2)N(C(=O)c2snc(C(N)=O)c2N)C2CCCC2)cc1 (stereo unspecified)	> 42 µM (inactive)
Cc1cnc(NC(=O)CN2CCN(c3ccccc3F)CC2)s1	> 42 µM (inactive)
O=[N+]([O-])c1ccccc1CN1CC=C(c2ccc(F)cc2)CC1	> 42 µM (inactive)
